# Results from paper PMC10470313, “Developing a peptide to disrupt cohesin head domain interactions” (iScience, 2023).
# Where no end group is shown, it is not given here.
# Key:
# [1] = system: cohesin (Smc3-V5) on chromatin, yKS-008 strain; test: Chromatin immunoprecipitation (ChIP) of cohesin (Smc3-V5); assay type: cell-based, yeast; conditions: G2/M arrested; anti-V5 ChIP-qPCR; centromeres of chromosomes 3 and 4, rDNA locus chromosome 12, CARC1 chromosome 3
# Method: To test the effect of CIP3 on the association of cohesin with chromatin, we performed a chromatin immunoprecipitation (ChIP) assay. yKS-008 strain (Smc3-V5) cells were grown to mid-log phase and arrested in the G1 phase of the cell cycle. Cells were untreated or supplemented with CIP3-TAT and then released into the cell cycle until they were rearrested at the G2/M phase. Cells were processed for ChIP with antibodies against V5 (Figure 4D). Cohesin residency was explored on loci on which cohesin enrichment: the centromeres of chromosome 3 and chromosome 4, the rDNA locus on chromosome 12 and the cohesin-associated region C1 (CARC1) on chromosome 3. […] However, it stabilizes non-cohesive chromosome-bound cohesin. […] Thus, we conclude that CIP3 inhibits ATP hydrolysis rather than blocks ATP binding and cohesin loading.
# The cohesion GFP dot assay and ChIP are described in.[46]^,[63]^,[68] In brief, cohesion was studied by visualizing LacO arrays inserted at the LYS locus in a strain expressing LacI-GFP. Cell cultures were grown in a YEPD to OD600=0.5 and synchronized by nocodazole. Cells were fixed by incubating with 100 μl of 4% paraformaldehyde, 15min at room temperature and washed once (5,000rpm, 30sec, room temperature) with 1ml KOP4/sorbitol solution (0.1 M KOP4 pH=7.5 with 1.2 M sorbitol), resuspended in 100 μl of KOP4/sorbitol and stored at 4°C up to one month. […]
# [2] = system: yeast cells, G2/M; test: Chromosome condensation by two-photon microscopy; assay type: cell-based; conditions: nuclear-integrated density divided by circumference, at least 40 nuclei
# Method: Chromosome condensation depends on cohesin. However, this cohesin function can be separated from sister chromatid cohesion activity.[45]^,[46] We tested this possibility by analyzing chromatin in G2/M cells via two-photon microscopy.[47]^,[48] Cells were grown and treated as before.
# The method is described in.[47]^,[48] Briefly, cells were grown to mid-log phase. Two-photon microscopy of live cells was performed with the LSM780 (Zeiss) inverted confocal microscope, using the Chameleon Vision II (Coherent) multiphoton laser (3 W, pulse width 140 fs at peak, repetition rate 80 MHz, tuning range 680-1080 nm, excitation 768 nm/image collection 512 nm). Slides were visualized with X63 N/A 1.4 objective lenses. Cells in G2/M were selected based on their morphology. Images were analyzed using Image J processing software. The condensation level is represented by the division of the nuclear-integrated density by its circumference. The significance between conditions was determined by using Student's t-test.
# [3] = system: yME-961 strain yeast cells; test: Cell cycle stage by flow cytometry; assay type: cell-based; conditions: peptide 1 h at G1, release to G2/M arrest
# Method: The potential of CIP3-TAT to inhibit cohesion activity was explored by analyzing sister chromatid cohesion in cells arrested at the G2/M. Inserted in the LYS4 locus were LacO arrays, which bind LacI-GFP. In unperturbed cells arrested at the G2/M phase of the cell cycle, cohesin tethers the sister chromatids visualized under the microscope as a single GFP dot. When cohesin is inactivated, the sister chromatids fall apart and are seen as two distinctive GFP dots. yME-961 strain cells were grown to mid-log phase and arrested at the G1 phase of the cell cycle. Cells were divided into three samples, of which two were supplemented with TAT peptide alone or CIP3-TAT for 1 h. Then, the cells were released into the cell cycle until their rearrest at the G2/M phase. Cells were processed for cohesion assay (Figure 4A).
# Supplementary Figure S3. Binding of CIP3-TAT to cohesin by microscale thermophoresis, Related to Figure 3. 10 µM CIP3-TAT was added to protein extracts from strain yAM-945 (Smc3-GFP). The formation of the CIP3-TAT and cohesin complex was analyzed by MST in binding mode. A. MST trace. […]
# 3. […] The purified proteins were analyzed on gel, followed by coomassie staining. […]
# Supplementary Figure S5. […] The entry of the peptide into the cells was analyzed by epifluorescence microscopy.
# Supplementary Figure S6. […] The cell cycle stage of the cells, described in Fig. 4B, was determined by flow cytometry. […]
sequence,measurement,setting,value
KRFKDMEYLSGGEKTGGYGRKKRRQRRR [CIP3-TAT],cohesin residency on chromatin,[1],cohesin residency increased in cells treated with CIP3-TAT in all tested regions
same,chromatin condensation,[2],chromatin was decondensed in comparison with the untreated cells
same,cell cycle delay,[3],No cell cycle delays
